Source: patent publication US8609162B2, “Integrated neuromodulation system for mood enhancement of a living human subject” (priority 2012, dated 2013)

Tests used:
[1] = doses as low as; cited from earlier work
[2] = tested on: normal, healthy volunteers; test: clinical trial of subjective mood enhancement after ingestion of the prepared beverage, eight test groups; format: in vivo, human; details: for duration of effect: following ingestion of the prepared beverage; for Score, subjective feeling of mood enhancement: scale of 0 (no change) to 10 (euphoric), N=10 per group, oral solution in 125 mL juice, 10 day period; for mood effect as described: subjective report in words
Procedure: A set of clinical trials were performed using the median dosing of a ‘typical formulation’ in randomly selected normal, healthy volunteers ranging from 14 to 80 years (mean age 44.5 years) greater than 50 kg body weight over a 10 day period. At the end of the clinical trial, subjects were asked to subjectively rate the feeling of mood enhancement, ranging from a scale of 0 (no change) to 10 (euphoric) and to rate the duration of effect (in hours) following ingestion of the prepared beverage. Members also were encouraged to report any side effects, if any.
Eight different test groups of ten human subjects each (N=10) were devised as follows:
Test Group 1: Oral solution containing 125 mL juice (7% carbohydrate), 3 times daily. This formulation represents placebo.
(§1) Test Group 2: L-Phenylalanine, 800 mg and mucina pruriens, 15% L-DOPA, 200 mg oral solution in 125 mL juice (containing 7% carbohydrate), 3 times daily. This nootropic formulation affects the following neurotransmitter systems: dopamine agonist, a stimulant. The type number ratio is 2:0:0:0:0 to produce a ΔN=+2. This agent fails the test for producing predictable mood enhancement because it is has an imbalanced type number ratio, resulting in a net stimulatory effect (ΔN=+2), and producing a predictable mood over stimulation.
as §1, with “3: Phenylethylamine hydrochloride, 400” for “2: L-Phenylalanine, 800 mg and mucina pruriens, 15% L-DOPA, 200”, “single dose.” for “3 times daily.”, “1:0:0:0:0” for “2:0:0:0:0”, “ΔN=+1.” for “ΔN=+2.”, “(ΔN=+1),” for “(ΔN=+2),”
(§2) Test Group 4: Dimethylaminoethanol bitartrate, 300 mg oral solution in 125 mL juice (containing 7% carbohydrate), 3 times daily. This nootropic formulation affects the following neurotransmitter systems: acetylcholine agonist, an inhibitor. The type number ratio is 0:1:0:0:0 to produce a ΔN=−1. This agent fails the test for producing predictable mood enhancement because it is has an imbalanced type number ratio, resulting in a net inhibitory effect (ΔN=−1), and producing a predictable mood suppression.
as §2, with “5: S-Adenosyl-methionine tosylate disulfate,” for “4: Dimethylaminoethanol bitartrate,”, “serotonin” for “acetylcholine”, “0:0:1:0:0” for “0:1:0:0:0”
as §1, with “6: Anhydrous caffeine, 80” for “2: L-Phenylalanine, 800 mg and mucina pruriens, 15% L-DOPA, 200”, “adenosine antagonist,” for “dopamine agonist,”, “0:0:0:0:1” for “2:0:0:0:0”, “ΔN=+1.” for “ΔN=+2.”, “(ΔN=+1),” for “(ΔN=+2),”
as §2, with “7: L-Theanine, 200” for “4: Dimethylaminoethanol bitartrate, 300”, “GABA” for “acetylcholine”, “0:0:0:1:0” for “0:1:0:0:0”, “suppression. […]” for “suppression.”

Molecule	dose producing hallucinogenic and entheogenic effects [1] [µg]	side effects reported ([2]; 10 subjects per group)	duration of effect [2]	Score, subjective feeling of mood enhancement [2]	mood effect as described ([2]; hydrochloride)	mood effect as described ([2]; listed as Phenylethyamine hydrochloride, hydrochloride)	mood effect as described [2]	side effects reported ([2]; human, in vivo)	mood effect as described ([2]; listed as S-adenosyl-methionine tosylate disulfate)
CCN(CC)C(=O)[C@@H]1C=C2c3cccc4[nH]cc(c34)C[C@H]2N(C)C1 [LSD]	30 to 40								
Cl.NCCc1ccccc1 [Test Group 3, Phenylethylamine hydrochloride]		flushing in 4 of 10 subjects	less than 30 minutes	7.5	temporary euphoric feeling	noticeable but short-term effect			
Cn1c(=O)c2c(ncn2C)n(C)c1=O [Test Group 6, Anhydrous caffeine]		No side effects reported	2 h	3.0			felt alert		
CCNC(=O)CC[C@H](N)C(=O)O [Test Group 7, L-Theanine]			3 h	6.5			very calm, sedative-like effect	No side effects reported	
Dimethylaminoethanol bitartrate [Test Group 4]		headache in 1 of 10 subjects	less than 1 hours	2.0			mild effect		
S-Adenosyl-methionine tosylate disulfate [Test Group 5]		No side effects reported	3 h	6.0			better mood		moderate mood enhancement
